Common to all, as to experiment: biochemical
Common to all, as to parameters: KINOMEscan competition binding panel (Eurofins DiscoverX), single concentration, percent inhibition
Common to all, as to details: read-out: 15 at 1 µM % inhibition

In one test the target is SRPK3 (Homo sapiens, UniProt Q9UPE1). Put shortly: (§1)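 Compounds were submitted at 1 µM to a KINOMEscan assay covering more than 400 human kinases. The screen served to define the selectivity profile.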
The target in a further test is KIT(V559D,T670I) (Homo sapiens, UniProt P10721, T670I/V559D). In outline: as §1
In the next test the target is INSRR (Homo sapiens, UniProt P14616). Put shortly:
as §1

The target of another test is SBK1 (Homo sapiens, UniProt Q52WX2). Put shortly:
as §1

For the next test, the target named is EGFR(T790M) (Homo sapiens, UniProt P00533, T790M). Put shortly:
as §1

For a further test, the target named is DYRK1A (Homo sapiens, UniProt Q13627). Put shortly: as §1
For the next test, the target named is MKNK2 (Homo sapiens, UniProt Q9HBH9). Put shortly:
as §1

Another test deals with MAP4K2 (Homo sapiens, UniProt Q12851). Put shortly:
as §1

The target of the next test is HASPIN (Homo sapiens, UniProt Q8TF76). In outline:
as §1

Another test addresses T1, PCTK3 (Homo sapiens, UniProt Q07002).
T1 construct: gene CDK18
Put shortly:
as §1

The target in the next test is BRSK1 (Homo sapiens, UniProt Q8TDC3). Put shortly:
as §1

The target in test [1] is T2, JAK1(JH1domain-catalytic) (Homo sapiens, UniProt P23458).
T2 construct: JH1domain-catalytic
Put shortly:
as §1

Test [2] concerns the target T3, RSK2(Kin.Dom.1-N-terminal) (Homo sapiens, UniProt P51812).
T3 construct: gene RPS6KA3; Kin.Dom.1-N-terminal
Put shortly: as §1

In a further test the target is T4, GCN2(Kin.Dom.2,S808G) (Homo sapiens, UniProt Q9P2K8, S808G).
T4 construct: gene EIF2AK4; Kin.Dom.2
Put shortly:
as §1

A further test has as its target RIPK1 (Homo sapiens, UniProt Q13546). In outline:
as §1

For another test, the target named is T5, PRKR (Homo sapiens, UniProt P19525).
T5 construct: gene EIF2AK2
Put shortly: as §1

The target of a further test is BTK (Homo sapiens, UniProt Q06187). In outline:
as §1

For another test, the target named is FGFR4 (Homo sapiens, UniProt P22455). In outline:
as §1

For the next test, the target named is CDK8 (Homo sapiens, UniProt P49336). Put shortly: as §1
The next test deals with CSF1R-autoinhibited (Homo sapiens, UniProt P07333). Put shortly:
as §1

The next test concerns the target T6, MST1 (Homo sapiens, UniProt Q13043).
T6 construct: gene STK4
In outline:
as §1

The next test has as its target MYLK4 (Homo sapiens, UniProt Q86YV6). Put shortly:
as §1

The target in the next test is CLK1 (Homo sapiens, UniProt P49759). In outline:
as §1

The target of a further test is WNK2 (Homo sapiens, UniProt Q9Y3S1). Put shortly:
as §1

Consider one compound from paper PMC7180948, “New Insights into 4-Anilinoquinazolines as Inhibitors of Cardiac Troponin I–Interacting Kinase (TNNi3K)” (Molecules, 2020).

Sequence of MYLK4 (Q86YV6 whole entry): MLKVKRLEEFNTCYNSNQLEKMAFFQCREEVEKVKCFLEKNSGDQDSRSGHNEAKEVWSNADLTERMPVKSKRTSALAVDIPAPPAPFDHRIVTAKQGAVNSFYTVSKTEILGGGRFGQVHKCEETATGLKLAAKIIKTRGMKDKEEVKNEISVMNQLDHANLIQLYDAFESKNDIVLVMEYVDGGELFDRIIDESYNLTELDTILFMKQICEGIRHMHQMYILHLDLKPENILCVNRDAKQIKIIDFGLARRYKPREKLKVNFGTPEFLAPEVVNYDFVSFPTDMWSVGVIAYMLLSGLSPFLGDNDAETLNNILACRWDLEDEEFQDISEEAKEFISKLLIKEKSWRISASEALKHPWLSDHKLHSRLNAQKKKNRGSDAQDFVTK
Sequence of INSRR (P14616 whole entry): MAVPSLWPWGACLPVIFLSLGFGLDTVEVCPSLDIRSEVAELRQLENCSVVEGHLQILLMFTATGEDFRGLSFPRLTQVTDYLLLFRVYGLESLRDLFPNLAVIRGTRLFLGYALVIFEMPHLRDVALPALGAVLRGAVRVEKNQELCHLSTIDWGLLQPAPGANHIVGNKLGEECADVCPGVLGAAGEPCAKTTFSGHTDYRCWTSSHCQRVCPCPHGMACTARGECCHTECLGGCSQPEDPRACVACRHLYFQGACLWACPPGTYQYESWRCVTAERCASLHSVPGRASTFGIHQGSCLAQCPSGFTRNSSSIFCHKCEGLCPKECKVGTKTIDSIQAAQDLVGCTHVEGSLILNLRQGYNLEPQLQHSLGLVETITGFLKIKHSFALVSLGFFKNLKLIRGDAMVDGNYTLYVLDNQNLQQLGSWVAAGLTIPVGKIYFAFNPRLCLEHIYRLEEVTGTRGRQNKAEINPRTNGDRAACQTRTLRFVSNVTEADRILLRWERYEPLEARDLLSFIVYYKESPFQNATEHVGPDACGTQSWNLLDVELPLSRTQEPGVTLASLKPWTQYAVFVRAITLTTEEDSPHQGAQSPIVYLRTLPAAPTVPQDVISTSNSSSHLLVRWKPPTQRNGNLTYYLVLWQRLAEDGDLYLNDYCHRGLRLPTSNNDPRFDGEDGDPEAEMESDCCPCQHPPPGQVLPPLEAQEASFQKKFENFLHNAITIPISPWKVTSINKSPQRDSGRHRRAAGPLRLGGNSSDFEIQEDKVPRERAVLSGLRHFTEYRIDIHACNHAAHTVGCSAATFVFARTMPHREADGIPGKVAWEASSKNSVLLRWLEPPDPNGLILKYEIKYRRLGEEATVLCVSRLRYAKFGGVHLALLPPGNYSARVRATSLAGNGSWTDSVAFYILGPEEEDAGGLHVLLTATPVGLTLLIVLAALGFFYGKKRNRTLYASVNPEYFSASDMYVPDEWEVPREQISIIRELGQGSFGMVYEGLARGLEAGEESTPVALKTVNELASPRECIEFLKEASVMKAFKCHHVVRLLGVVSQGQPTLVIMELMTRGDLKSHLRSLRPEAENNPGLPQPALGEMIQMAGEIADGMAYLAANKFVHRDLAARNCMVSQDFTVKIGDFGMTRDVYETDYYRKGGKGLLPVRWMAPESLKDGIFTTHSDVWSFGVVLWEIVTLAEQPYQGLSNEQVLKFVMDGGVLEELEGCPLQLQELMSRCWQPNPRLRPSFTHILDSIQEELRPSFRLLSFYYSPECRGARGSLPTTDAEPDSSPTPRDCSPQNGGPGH
Sequence of KIT(V559D,T670I) (P10721 whole entry V559D/T670I): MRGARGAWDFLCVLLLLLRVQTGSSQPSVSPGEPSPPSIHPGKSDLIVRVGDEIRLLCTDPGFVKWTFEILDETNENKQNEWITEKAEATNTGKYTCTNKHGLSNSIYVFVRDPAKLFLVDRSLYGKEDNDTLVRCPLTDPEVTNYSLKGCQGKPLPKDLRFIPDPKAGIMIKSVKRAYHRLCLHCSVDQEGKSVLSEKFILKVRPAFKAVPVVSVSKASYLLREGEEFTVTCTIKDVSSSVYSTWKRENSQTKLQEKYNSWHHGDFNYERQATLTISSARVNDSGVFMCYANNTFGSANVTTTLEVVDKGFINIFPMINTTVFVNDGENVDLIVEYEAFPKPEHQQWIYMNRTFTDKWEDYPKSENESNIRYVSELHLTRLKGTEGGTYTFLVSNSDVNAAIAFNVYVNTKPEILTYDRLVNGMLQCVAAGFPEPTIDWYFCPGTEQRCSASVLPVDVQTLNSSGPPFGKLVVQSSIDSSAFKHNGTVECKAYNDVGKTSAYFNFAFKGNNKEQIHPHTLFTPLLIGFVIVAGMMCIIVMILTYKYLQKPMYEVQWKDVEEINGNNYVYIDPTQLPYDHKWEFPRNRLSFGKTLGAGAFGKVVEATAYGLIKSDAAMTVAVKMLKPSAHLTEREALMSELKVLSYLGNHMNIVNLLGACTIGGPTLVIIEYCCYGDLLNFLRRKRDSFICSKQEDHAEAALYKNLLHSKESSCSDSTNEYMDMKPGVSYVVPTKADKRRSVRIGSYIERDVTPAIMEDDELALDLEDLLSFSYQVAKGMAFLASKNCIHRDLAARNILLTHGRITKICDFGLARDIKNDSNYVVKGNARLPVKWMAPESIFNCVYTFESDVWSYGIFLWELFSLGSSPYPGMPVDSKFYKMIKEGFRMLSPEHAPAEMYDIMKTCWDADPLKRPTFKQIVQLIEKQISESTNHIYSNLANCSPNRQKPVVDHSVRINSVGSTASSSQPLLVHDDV
T6 sequence (Q13043 whole entry): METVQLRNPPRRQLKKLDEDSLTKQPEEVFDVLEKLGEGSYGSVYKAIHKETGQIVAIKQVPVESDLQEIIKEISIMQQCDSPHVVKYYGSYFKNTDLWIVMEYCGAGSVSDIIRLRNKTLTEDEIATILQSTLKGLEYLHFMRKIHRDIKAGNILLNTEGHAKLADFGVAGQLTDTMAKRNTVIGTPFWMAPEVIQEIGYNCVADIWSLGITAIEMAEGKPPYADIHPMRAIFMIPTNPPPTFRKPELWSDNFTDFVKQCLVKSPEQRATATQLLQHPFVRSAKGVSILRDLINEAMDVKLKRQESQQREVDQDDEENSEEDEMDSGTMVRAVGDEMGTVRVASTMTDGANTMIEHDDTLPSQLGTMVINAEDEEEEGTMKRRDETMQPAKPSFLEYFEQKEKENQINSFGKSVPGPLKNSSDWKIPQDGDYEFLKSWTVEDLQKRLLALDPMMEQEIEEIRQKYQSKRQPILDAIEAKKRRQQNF
Sequence of SRPK3 (Q9UPE1 whole entry): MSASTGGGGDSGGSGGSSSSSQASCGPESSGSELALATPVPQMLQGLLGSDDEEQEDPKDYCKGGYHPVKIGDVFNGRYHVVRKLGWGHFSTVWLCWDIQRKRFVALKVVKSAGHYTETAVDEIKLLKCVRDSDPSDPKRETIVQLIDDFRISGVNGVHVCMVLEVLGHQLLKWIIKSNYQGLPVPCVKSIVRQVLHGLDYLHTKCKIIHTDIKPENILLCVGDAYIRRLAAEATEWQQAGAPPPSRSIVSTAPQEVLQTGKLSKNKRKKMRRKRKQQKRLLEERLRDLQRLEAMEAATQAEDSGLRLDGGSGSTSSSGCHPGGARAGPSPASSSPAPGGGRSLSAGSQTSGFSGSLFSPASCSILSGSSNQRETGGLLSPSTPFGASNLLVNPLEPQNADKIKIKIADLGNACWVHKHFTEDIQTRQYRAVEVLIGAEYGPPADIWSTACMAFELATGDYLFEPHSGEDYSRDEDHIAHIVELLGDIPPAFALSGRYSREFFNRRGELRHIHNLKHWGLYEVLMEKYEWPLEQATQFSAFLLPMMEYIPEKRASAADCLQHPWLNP
T5 sequence (P19525 whole entry): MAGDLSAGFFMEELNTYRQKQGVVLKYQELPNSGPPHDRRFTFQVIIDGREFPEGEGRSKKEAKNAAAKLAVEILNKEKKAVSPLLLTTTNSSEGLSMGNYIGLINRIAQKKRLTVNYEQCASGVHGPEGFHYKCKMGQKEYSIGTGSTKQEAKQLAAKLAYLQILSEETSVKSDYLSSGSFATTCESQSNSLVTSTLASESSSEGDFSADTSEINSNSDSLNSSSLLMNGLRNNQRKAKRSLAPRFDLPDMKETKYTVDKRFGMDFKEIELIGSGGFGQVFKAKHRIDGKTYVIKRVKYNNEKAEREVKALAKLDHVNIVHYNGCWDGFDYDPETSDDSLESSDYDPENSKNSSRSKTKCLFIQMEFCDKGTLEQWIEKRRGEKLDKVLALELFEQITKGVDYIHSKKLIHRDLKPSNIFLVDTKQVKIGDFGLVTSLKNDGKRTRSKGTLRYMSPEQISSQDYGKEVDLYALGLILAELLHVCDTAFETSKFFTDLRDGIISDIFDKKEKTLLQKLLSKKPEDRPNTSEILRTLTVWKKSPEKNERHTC
Sequence of BRSK1 (Q8TDC3 whole entry): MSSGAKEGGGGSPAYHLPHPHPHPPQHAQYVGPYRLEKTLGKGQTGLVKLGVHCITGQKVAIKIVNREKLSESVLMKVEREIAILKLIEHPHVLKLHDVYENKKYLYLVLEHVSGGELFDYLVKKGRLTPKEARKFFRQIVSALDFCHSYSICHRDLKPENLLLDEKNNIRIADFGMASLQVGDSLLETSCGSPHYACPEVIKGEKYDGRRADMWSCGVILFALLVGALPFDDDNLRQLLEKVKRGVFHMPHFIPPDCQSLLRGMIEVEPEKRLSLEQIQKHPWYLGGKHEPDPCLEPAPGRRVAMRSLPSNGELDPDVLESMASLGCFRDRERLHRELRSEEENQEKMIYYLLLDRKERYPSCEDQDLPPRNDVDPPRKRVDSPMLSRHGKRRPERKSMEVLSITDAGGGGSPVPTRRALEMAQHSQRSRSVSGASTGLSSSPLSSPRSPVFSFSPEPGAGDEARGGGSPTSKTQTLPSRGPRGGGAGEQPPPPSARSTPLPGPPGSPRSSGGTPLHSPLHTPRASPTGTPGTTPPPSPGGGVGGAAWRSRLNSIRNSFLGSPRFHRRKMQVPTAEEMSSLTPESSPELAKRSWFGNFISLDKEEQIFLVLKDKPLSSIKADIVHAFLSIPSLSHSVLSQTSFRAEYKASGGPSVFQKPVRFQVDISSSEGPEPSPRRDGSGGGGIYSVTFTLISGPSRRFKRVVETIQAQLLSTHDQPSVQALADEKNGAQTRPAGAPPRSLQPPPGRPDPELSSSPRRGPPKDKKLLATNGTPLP

In the case of `CNS(=O)(=O)c1ccc(N(C)C)c(Nc2nc(C)nc3cc(OC)c(OC)cc23)c1` [compound 15, 3-((6,7-dimethoxy-2-methylquinazolin-4-yl)amino)-4-(dimethylamino)-N-methylbenzenesulfonamide], the inhibition (as a rule, how much of the control response was suppressed) at 1 µM came to 1% on SRPK3; 0% on KIT(V559D,T670I); 22% at INSRR; 44% on SBK1; 25% on EGFR(T790M); 15% on DYRK1A. Moreover, the inhibition at 1 µM is 38% at MKNK2; 3% on MAP4K2; 0% at HASPIN; 0% on PCTK3; 0% on BRSK1; 0% in test [1]. In addition, the inhibition at 1 µM in test [2] amounted to 15%; on GCN2(Kin.Dom.2,S808G) it was 0%; on RIPK1, 37%; on PRKR it was 7%; on BTK, 26%; on FGFR4, 4%. Besides, the inhibition at 1 µM is 0% at CDK8; 32% at CSF1R-autoinhibited; 5% on MST1; 0% at MYLK4; 0% at CLK1; 14% at WNK2.
